Patent publication EP0061654A1, “Vincamine cyclamate, process for its preparation and medicaments containing it” (Heinrich Mack Nachf., priority 1981, dated 1982)
Where two headings read alike, the source gives them in different places.

Key:
[1] = in Wasser und anderen pharmazeutisch annehmbaren Lösungsmitteln; cited from earlier work
[2] = Solubility in pharmaceutically acceptable solvents; assay type: physicochemical; conditions: in Wasser, Glycerin/Ethanol-Gemischen oder Ethanol/Wasser-Gemischen

Compound	Löslichkeit [1]	Löslichkeit [2]
CCC12CCCN3CCc4c(n(c5ccccc45)C(O)(C(=O)OC)C1)C32 (centres unmarked) [Vincamin-Base, Vincamin]	praktisch unlöslich	–
Vincamin-cyclamat	–	ausreichend löslich
